One may read the IC50 as the midpoint of a concentration-inhibition curve.

Like-named read-outs stand apart in the source and are kept apart here.

The subject of series [1] is 3D7-strain P. falciparum asexual parasites. The series is described as follows: P. falciparum asexual growth inhibition assay (Pf GIA). In kind it is cell-based, Plasmodium falciparum. To be noted: dose response confirmation; read-out: Pf asexual growth inhibition assays IC50. Summed up: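 Steps: seed parasites (0.25% parasitemia, 2% hematocrit) onto compound dilutions; incubate 72 h at 37°C, 5% O2/5% CO2; freeze at −70°C and thaw; add LDH reaction mix, read A650 after 10 min. Percent growth inhibition derived from chloroquine and DMSO controls, averaged over three biological replicates.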

For another series, the system named is HepG2 cells. As to the kind of experiment: HepG2 cytotoxicity assay. To be noted: for IC50: read-out: HepG2 cytotoxicity assay IC50, dose response confirmation; for Pb ODA (this manuscript) HepG2 cytoxicity: HepG2 cytotoxicity listed with the Pb ODA data set (this manuscript). An outline of the steps:
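Cells are plated at 2,500 per well on compound-treated plates in MEM containing 10% fetal bovine serum and 1% NEAA, then incubated 48 h at 37°C.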

The test system of series [2] is P. berghei ookinete development. To be noted: for % inhibition, Replicate A / % inhibition, Replicate B: primary screen at 1 μM.
Setting [3] is: unified HepG2 value across the three screens.
Setting [4] is: read-out: Pb ODA IC50, this manuscript.
The mark [5] stands for this setting: read-out: Pb Ookinete development assay IC50, dose response confirmation.
[6] abbreviates: HepG2 values of the three screens unified.
Setting [7] is: read-out: Pb ODA (this manuscript) IC50, P. berghei ookinete development assay, this manuscript.

In the case of `O=c1cc(NCCCN(Cc2ccccc2)Cc2ccccc2)[nH]c2ccccc12` [TCMDC-139368], the IC50 in series [1] amounted to 1120 nM; with HepG2 cells it was 33900 nM; in series [2] (setting [4]), 2870 nM; in series [2] (setting [5]), 2870 nM. In addition, the “Unified cytotox” value in the series on HepG2 cells (setting [3]) is 33.88 µM. Further, in series [2] (1: YES, 0: NO), the “Is compound selective in assay? Pb ODA active?” value (“Is compound selective” for short) is 1 (1: YES). Besides, the “% inhibition, Replicate A” value in series [2] was determined as 31.96%. In addition, in series [2], the “% inhibition, Replicate B” value was found to be 60.20%.
`CCOC(=O)[C@H](Cc1cc([N+](=O)[O-])c(Oc2ccc(OC)c(Cc3ccc(OC)c(C(C)C)c3)c2)c([N+](=O)[O-])c1)NC(=O)C(F)(F)F` [TCMDC-139398]: the IC50 came out at 9490 nM in series [1], 100000 nM in the series with HepG2 cells, 4900 nM in series [2] (setting [4]) and 4900 nM in series [2] (setting [5]). Further, in the series with HepG2 cells (setting [3]), the “Unified cytotox” value amounted to 100.00 µM. Further, the “Is compound selective” value in series [2] (1: YES, 0: NO) was 1 (1: YES). Besides, in series [2], the “% inhibition, Replicate A” value was found to be 63.87%. In addition, the “% inhibition, Replicate B” value in series [2] turned out to be 33.42%.
For `Cl.O=c1cc(NCCCNCc2sc(Br)c(Br)c2Br)[nH]c2ccccc12` [TCMDC-139647], the IC50 in series [1] came out at 977 nM; with HepG2 cells, 34700 nM; in series [2] (setting [4]), 1960 nM; in series [2] (setting [5]), 1960 nM. Further, in the series with HepG2 cells (setting [3]), the “Unified cytotox” value worked out at 34.67 µM. For the same molecule, the “Is compound selective” value in series [2] (1: YES, 0: NO) is reported as 1 (1: YES). Besides, the “% inhibition, Replicate A” value in series [2] turned out to be 55.06%. Also, the “% inhibition, Replicate B” value in series [2] turned out to be 82.69%.
Take `Cl.Oc1cc(-c2nc(-c3ccccc3)[nH]c2-c2ccncc2)ccc1Cl` [TCMDC-139660]: the IC50 in series [1] was 1790 nM. Besides, in the series on HepG2 cells, the “Unified cytotox” value amounted to 9.77 µM and the IC50 worked out at 9770 nM. Besides, in series [2], the “Is compound selective” value is given as 0 (key: 1: YES; 0: NO); the “% inhibition, Replicate A” value is recorded as 79.35%; the “% inhibition, Replicate B” value is on record as 69.44%. For the same molecule, the IC50 in series [2] (setting [4]) is 1760 nM. Besides, the IC50 in series [2] (setting [5]) is 1760 nM.
In the case of `CC(C)Nc1nc(NC2CCCCC2)nc(N2CCCCCCC2)n1` [TCMDC-139688], the values for the IC50 (in series [1]; in the series on HepG2 cells; in series [2] (setting [5])) were 2240 nM, 33100 nM and 3260 nM, respectively. Further, in the series on HepG2 cells (setting [3]), the “Unified cytotox” value came to 33.11 µM. Also, in series [2] (1: YES, 0: NO), the “Is compound selective” value is recorded as 1 (1: YES). For the same molecule, in series [2], the “% inhibition, Replicate A” value was found to be 67.11%. In addition, in series [2], the “% inhibition, Replicate B” value is listed as 52.41%.
For the molecule `COc1cc(NC(=O)Nc2ccc(Br)cc2C(=O)Nc2ccc(Br)cc2)cc(OC)c1OC` [TCMDC-139733], the IC50 in series [1] stood at 2090 nM; in the series with HepG2 cells, 100000 nM; in series [2] (setting [4]), 6380 nM; in series [2] (setting [5]), 6380 nM. Further, in the series with HepG2 cells (setting [3]), the “Unified cytotox” value turned out to be 100.00 µM. In series [2] (1: YES, 0: NO), the “Is compound selective” value is reported as 1 (1: YES). For the same molecule, the “% inhibition, Replicate A” value in series [2] turned out to be 44.63%. Besides, in series [2], the “% inhibition, Replicate B” value is given as 66.05%.
Take `C=C[C@H]1CN(CCCCCCC)CC[C@H]1CC(=O)Nc1cnnc2ccc(OC)cc12.O=C(O)C(=O)O` [TCMDC-139791]: the IC50 in series [1] came to 276 nM; in the series with HepG2 cells, 33900 nM; in series [2] (setting [4]), 2770 nM; in series [2] (setting [5]), 2770 nM. Also, in the series with HepG2 cells (setting [3]), the “Unified cytotox” value turned out to be 33.88 µM. Also, in series [2] (1: YES, 0: NO), the “Is compound selective” value was 1 (1: YES). In addition, in series [2], the “% inhibition, Replicate A” value was found to be 17.33%. In series [2], the “% inhibition, Replicate B” value is 54.49%.
Regarding `COc1ccc(Cn2ccc3c4c(N)nc(N)nc4ccc32)cc1` [TCMDC-139862], the IC50 was less than 0.2 nM in series [1], 11 nM with HepG2 cells, 320 nM in series [2] (setting [4]) and 315 nM in series [2] (setting [5]). Moreover, in the series with HepG2 cells, the “HepG2 cytoxicity (Pb ODA, this manuscript)” value was 0.011 µM. The same molecule had a Unified cytotox in the series with HepG2 cells (setting [6]) of 0.011 µM. Besides, the “Is compound selective” value in series [2] (1: YES, 0: NO) is listed as 0 (0: NO). Also, the “% inhibition, Replicate A” value in series [2] is listed as 43.74%. Besides, in series [2], the “% inhibition, Replicate B” value stood at 74.79%.
As to `COc1ccc2nccc([C@@H](O)CN3CCC(NCCOc4cc(C(F)(F)F)ccc4F)CC3)c2c1.O=C(O)C(=O)O` [TCMDC-140658], the IC50 came to 35 nM in series [1], 3.43 nM with HepG2 cells, 3210 nM in series [2] (setting [4]) and 3210 nM in series [2] (setting [5]). In addition, the “HepG2 cytoxicity (Pb ODA, this manuscript)” value in the series on HepG2 cells came to 0.00343 µM. The molecule also returned a Unified cytotox in the series with HepG2 cells (setting [6]) of 0.00343 µM. In series [2] (1: YES, 0: NO), the “Is compound selective” value is recorded as 0 (0: NO). Further, in series [2], the “% inhibition, Replicate A” value was found to be 63.44%. In addition, the “% inhibition, Replicate B” value in series [2] turned out to be 46.33%.
With `COc1ccc2nccc([C@@H](O)CN3CCC(NCCOc4ccc(F)cc4Cl)CC3)c2c1.O=C(O)C(=O)O` [TCMDC-140660], the IC50 worked out at 173 nM in series [1], 32400 nM in the series with HepG2 cells, 8290 nM in series [2] (setting [4]) and 8290 nM in series [2] (setting [5]). The “HepG2 cytoxicity (Pb ODA, this manuscript)” value in the series on HepG2 cells turned out to be 32.36 µM. In the series on HepG2 cells (setting [6]), this molecule returned a Unified cytotox of 32.36 µM. Moreover, the “Is compound selective” value in series [2] (1: YES, 0: NO) is 0 (0: NO). Also, in series [2], the “% inhibition, Replicate A” value was determined as 30.16%. The “% inhibition, Replicate B” value in series [2] was 50.20%.
Consider `COc1cc(-c2nc(C(C)(C)CN)[nH]c2-c2ccncc2)ccc1Br.Cl` [TCMDC-140674], for which the IC50 was found to be 3120 nM in series [1], 39800 nM with HepG2 cells, 1320 nM in series [2] (setting [7]) and 1320 nM in series [2] (setting [5]). Further, the “Pb ODA (this manuscript) HepG2 cytoxicity” value with HepG2 cells is 39.81 µM. Also, the “Is compound selective” value in series [2] was 1 (key: 1: YES; 0: NO). Further, the “% inhibition, Replicate A” value in series [2] is 75.42%. The “% inhibition, Replicate B” value in series [2] is reported as 38.48%.
`COc1cccc(CNCC(C)(C)c2nc(-c3ccc(Cl)c(O)c3)c(-c3ccncc3)[nH]2)c1.Cl` [TCMDC-140687]: in series [1], the 50% inhibitory concentration (IC50) is 759 nM. In the series with HepG2 cells, the “Pb ODA (this manuscript) HepG2 cytoxicity” value is on record as 5.01 µM and the IC50 was 5010 nM. In addition, in series [2], the “Is compound selective” value is reported as 0 (key: 1: YES; 0: NO); the “% inhibition, Replicate A” value turned out to be 13.26%; the “% inhibition, Replicate B” value stood at 51.15%. The IC50 in series [2] (setting [7]) stood at 3740 nM. The 50% inhibitory concentration (IC50) in series [2] (setting [5]) came out at 3740 nM.
In the case of `COc1ccc2nccc([C@@H](O)CN3CCC(NCc4cc5ccc(C#N)cc5[nH]4)CC3)c2c1.O=C(O)C(=O)O` [TCMDC-140696], the IC50 in series [1] turned out to be 168 nM; with HepG2 cells it was 1550 nM; in series [2] (setting [4]), 1880 nM; in series [2] (setting [5]) it was 1880 nM. The “HepG2 cytoxicity (Pb ODA, this manuscript)” value with HepG2 cells turned out to be 1.55 µM. Further, the Unified cytotox with HepG2 cells (setting [6]) was 1.55 µM. For the same molecule, the “Is compound selective” value in series [2] (1: YES, 0: NO) is 0 (0: NO). Moreover, in series [2], the “% inhibition, Replicate A” value is 54.58%. Also, the “% inhibition, Replicate B” value in series [2] is reported as 89.62%.
As for `COc1ccc2nccc([C@@H](O)CN3CCC(NCc4cc5c(F)ccc(F)c5[nH]4)CC3)c2c1.O=C(O)C(=O)O` [TCMDC-140739], the IC50 in series [1] amounted to 98 nM; in the series with HepG2 cells it was 14800 nM; in series [2] (setting [4]), 2790 nM; in series [2] (setting [5]), 2790 nM. Besides, the “HepG2 cytoxicity (Pb ODA, this manuscript)” value in the series on HepG2 cells stood at 14.79 µM. The molecule also registered a Unified cytotox in the series with HepG2 cells (setting [6]) of 14.79 µM. In series [2] (1: YES, 0: NO), the “Is compound selective” value is recorded as 0 (0: NO). Besides, the “% inhibition, Replicate A” value in series [2] came to 18.82%. For the same molecule, in series [2], the “% inhibition, Replicate B” value is recorded as 50.21%.

These data come from article PMC6753678, “Fueling Open Innovation for Malaria Transmission-Blocking Drugs: Hundreds of Molecules Targeting Early Parasite Mosquito Stages” (Frontiers in Microbiology, 2019).
